From US11633382B2, “Treatment of ER-negative breast cancer with an PDGF-CC inhibitor and anti-estrogen” (Paracrine Therapeutics AB, priority 2015, dated 2023)

Assays:
Human MDA-MB-231 cells = assay: MDA-MB-231 orthotopic xenograft, anti-PDGF-CC and aromatase inhibitor (Example 2); assay type: in vivo, SCID mice; details: A3B6 i.p. twice a week, letrozole 1 mg/dose oral daily; combination p<0.01 vs control, p<0.05 vs A3B6, p<0.001 vs letrozole (FIG. 7)
Text: All therapeutic administrations were open-label.

[1] = test system: MMTV-PyMT; Pdgfc+/+ tumors; assay: Orthotopically transplanted MMTV-PyMT; Pdgfc+/+ (wt) tumors, tamoxifen trial; assay type: in vivo, FVB/N mice; details: tamoxifen daily (FIG. 6a)
Description: (§1) 3 weeks old FVB/N (common background strain for both MMTV-PyMT and PDGF-C mice) female mice were anesthetized and maintained under Isolfluorane during the surgical procedure. A 4 mm incision under the nipple of the right abdominal mammary gland created a pocket where a 2×2 mm tumor piece (kept on ice, either from MMTV-PyMT or MMTV-PyMT; PDGF-C tumors) was inserted. Suturing was performed with 6-O Ethilon polyamide filament (Ethicon). Pain-killer and anti-inflammatory Rimadyl (5 mg/kg body weight; Orion Pharma Animal Health) was injected i.p. at the end of the surgical procedure and for the following two days. For the therapeutic trial, Tamoxifen (2 mg/mL) was diluted in corn oil (vehicle) and administered via oral gavage daily.
(§2) Mouse mammary cell lines MMTV . . . MMTV/PDGF-C−/− . . . (established in our laboratory) were orthotopically injected into the 4th inguinal mammary gland on FVB/N mice. Furthermore, small tumor pieces (2 mm^3) of MMTV-PyMT and MMTV-PDGF-CC−/− tumors were directly orthotopically transplanted under anesthesia. The mice were subjected to Rimadyl immediately after the surgery and the following two days for analgetics. The tumors were measured twice a week and mice were euthanized as described above. […]

[2] = test system: MDA-MB-231 tumors (basal-like subtype); assay: MDA-MB-231 xenograft in SCID mice, tumor growth and angiogenesis (Example 1); assay type: in vivo; details: tamoxifen oral gavage daily with control antibody or A3B6 (FIG. 6c-d)
Description: 2×10^6 Human MDA-MB-231 cells were inoculated subcutaneously in immunodeficient mice. […] When tumors were palpable (longest diameter >3 mm), mice were randomized and treated with Tamoxifen (3 mg/kg) or vehicle (corn oil) via oral gavage daily.
In order to investigate whether pharmacological targeting of PDGF-CC as a mono-therapy impacted on breast tumor growth or angiogenesis, we treated SCID mice bearing orthotopically implanted MDA-MB-231 tumors (basal-like subtype) twice-weekly with the PDGF-CC antibody, A3B6 or with control antibody.
The clinically most important distinguishing feature of luminal subtype breast tumors is the expression of ERα, which confers sensitivity to hormone therapy, such as tamoxifen. We next set out to investigate whether targeting of PDGF-CC would convey sensitivity to hormone therapy to previously impervious ER-negative breast tumors of basal-like subtype. Non-transgenic mice bearing orthopically transplanted tumors from MMTV-PyMT; Pdgfc^+/+ or MMTV-PyMT; Pdgfc^lacz/lacz mice were treated daily with tamoxifen starting from […].

[3] = test system: ER-negative breast cancer; details: ER-negative disease, patients; cited from earlier work
[4] = test system: MMTV-PyMT; Pdgfc^lacz/lacz tumors; assay: Orthotopically transplanted MMTV-PyMT; Pdgfc lacz/lacz tumors, tamoxifen trial; assay type: in vivo, FVB/N mice; details: Pdgfc-deficient tumors
Description: as §1, §2

Structure (SMILES): N#Cc1ccc(C(c2ccc(C#N)cc2)n2cncn2)cc1 [letrozole]
- tumor growth, difference between groups (Human MDA-MB-231 cells): no other differences are statistically significant

Structure (SMILES): CCC(=C(c1ccccc1)c1ccc(OCCN(C)C)cc1)c1ccccc1 [tamoxifen, 2-[4-(1,2-diphenylbut-1-enyl)phenoxy]-N,N-dimethyl-ethanamine]
- tumor growth rate vs untreated mice [1]: continued to grow at a similar rate
- growth of fully established MDA-MB-231 tumors [2]: unable to influence the growth
- effect on breast cancer recurrence or mortality [3]: little or no effect
- tumor growth ([4]; tamoxifen daily (FIG. 6b)): severely growth-retarded
- tumor volume at the end of the trial ([4]; tamoxifen daily, untreated tumors had grown): reduced volume
